Measurements taken from the CheMixHub viscosity set.
Several values for one entry are separate records, joined by “and”; a condition that tells them apart may be missing. Identical values can stand only once. ± gives the uncertainty stated by the source.

Assay: xn = mol fraction of the nth substance listed

OCCCOCCCO + NCCN
viscosity [mPa·s], 101 kPa
Details	293.15 K	298.15 K	303.15 K	308.15 K	313.15 K	318.15 K
x1 = 0.023	1.77 ± 0.03	1.59 ± 0.03	1.34 ± 0.03	1.21 ± 0.03	1.09 ± 0.03	0.991 ± 0.029
x1 = 0.0474	2.1 ± 0.03	1.86 ± 0.03	1.55 ± 0.03	1.4 ± 0.03	1.24 ± 0.03	1.13 ± 0.03
x1 = 0.0733	2.51 ± 0.03	2.19 ± 0.03	1.81 ± 0.03	1.62 ± 0.03	1.44 ± 0.03	1.3 ± 0.03
x1 = 0.1007	3.07 ± 0.04	2.66 ± 0.03	2.16 ± 0.03	1.92 ± 0.03	1.71 ± 0.03	1.53 ± 0.03
x1 = 0.1299	3.75 ± 0.04	3.23 ± 0.04	2.59 ± 0.03	2.28 ± 0.03	2 ± 0.03	1.79 ± 0.03
x1 = 0.1611	4.7 ± 0.04	4.01 ± 0.04	3.16 ± 0.04	2.76 ± 0.03	2.43 ± 0.03	–
x1 = 0.1943	5.97 ± 0.05	4.99 ± 0.05	3.9 ± 0.04	3.34 ± 0.04	2.88 ± 0.04	–
x1 = 0.23	7.72 ± 0.06	6.39 ± 0.05	4.91 ± 0.05	4.16 ± 0.04	3.55 ± 0.04	–
x1 = 0.2682	10.2 ± 0.1	8.28 ± 0.06	6.24 ± 0.05	5.22 ± 0.05	4.37 ± 0.04	–
x1 = 0.3094	13.7 ± 0.1	10.9 ± 0.1	8.09 ± 0.06	6.65 ± 0.05	5.56 ± 0.05	–
x1 = 0.3538	18.7 ± 0.1	14.7 ± 0.1	10.7 ± 0.1	8.62 ± 0.07	7 ± 0.06	–
x1 = 0.4019	25.9 ± 0.2	19.8 ± 0.1	14.1 ± 0.1	11.1 ± 0.1	8.87 ± 0.07	–
x1 = 0.4541	36.7 ± 0.3	26.7 ± 0.2	18.6 ± 0.1	14.4 ± 0.1	11.2 ± 0.1	–
x1 = 0.5111	48.7 ± 0.3	35.4 ± 0.2	24.1 ± 0.2	18.4 ± 0.1	14.1 ± 0.1	–
x1 = 0.5734	63.9 ± 0.4	45.7 ± 0.3	30.6 ± 0.2	22.9 ± 0.2	17.4 ± 0.1	–
x1 = 0.6418	79.4 ± 0.8	56.4 ± 0.3	37.3 ± 0.3	27.6 ± 0.2	20.7 ± 0.1	–
x1 = 0.7174	93.8 ± 1.1	66 ± 0.5	43.3 ± 0.3	31.9 ± 0.2	23.7 ± 0.2	–
x1 = 0.8013	105 ± 2	73.2 ± 0.6	47.9 ± 0.3	35.1 ± 0.2	26 ± 0.2	–
x1 = 0.8949	112 ± 2	77.9 ± 0.7	50.6 ± 0.3	36.8 ± 0.2	27.3 ± 0.2	–

CC(C)C[C@H](N)C(=O)O + O
Details	viscosity
293.15 K, 100 kPa, x1 = 0.000274	1.013 ± 0.061 mPa·s
293.15 K, 100 kPa, x1 = 0.000645	1.038 ± 0.12 mPa·s
293.15 K, 100 kPa, x1 = 0.000947	1.055 ± 0.12 mPa·s
293.15 K, 100 kPa, x1 = 0.00132	1.076 ± 0.12 mPa·s
293.15 K, 100 kPa, x1 = 0.00136	1.04 ± 0.061 mPa·s
293.15 K, 100 kPa, x1 = 0.00153	1.044 ± 0.061 mPa·s
293.15 K, 100 kPa, x1 = 0.00162	1.093 ± 0.12 mPa·s
293.15 K, 100 kPa, x1 = 0.00172	1.048 ± 0.061 mPa·s
293.15 K, 100 kPa, x1 = 0.002001	1.114 ± 0.12 mPa·s
293.15 K, 100 kPa, x1 = 0.00234	1.133 ± 0.12 mPa·s
298.15 K, 100 kPa, x1 = 0.000274	0.9 ± 0.06 mPa·s
298.15 K, 100 kPa, x1 = 0.000292	0.8985 ± 0.12 mPa·s
298.15 K, 100 kPa, x1 = 0.000459	0.905 ± 0.06 mPa·s
298.15 K, 100 kPa, x1 = 0.000806	0.913 ± 0.06 mPa·s
298.15 K, 100 kPa, x1 = 0.000995	0.917 ± 0.06 mPa·s
298.15 K, 100 kPa, x1 = 0.00117	0.921 ± 0.06 mPa·s
298.15 K, 100 kPa, x1 = 0.00132	0.9262 ± 0.12 mPa·s
298.15 K, 100 kPa, x1 = 0.00136	0.925 ± 0.06 mPa·s
298.15 K, 100 kPa, x1 = 0.00153	0.929 ± 0.06 mPa·s
298.15 K, 100 kPa, x1 = 0.00162	0.9344 ± 0.12 mPa·s
298.15 K, 100 kPa, x1 = 0.00172	0.933 ± 0.061 mPa·s
298.15 K, 100 kPa, x1 = 0.002001	0.9447 ± 0.12 mPa·s
298.15 K, 100 kPa, x1 = 0.00234	0.9538 ± 0.12 mPa·s
303.15 K, 100 kPa, x1 = 0.000274	0.807 ± 0.06 mPa·s
303.15 K, 100 kPa, x1 = 0.000292	0.8043 ± 0.12 mPa·s
303.15 K, 100 kPa, x1 = 0.000459	0.811 ± 0.06 mPa·s
303.15 K, 100 kPa, x1 = 0.000632	0.815 ± 0.06 mPa·s
303.15 K, 100 kPa, x1 = 0.000645	0.8124 ± 0.12 mPa·s
303.15 K, 100 kPa, x1 = 0.000806	0.819 ± 0.06 mPa·s
303.15 K, 100 kPa, x1 = 0.000947	0.8194 ± 0.12 mPa·s
303.15 K, 100 kPa, x1 = 0.000995	0.823 ± 0.06 mPa·s
303.15 K, 100 kPa, x1 = 0.00117	0.826 ± 0.06 mPa·s
303.15 K, 100 kPa, x1 = 0.00132	0.828 ± 0.12 mPa·s
303.15 K, 100 kPa, x1 = 0.00136	0.83 ± 0.06 mPa·s
303.15 K, 100 kPa, x1 = 0.00153	0.834 ± 0.06 mPa·s
303.15 K, 100 kPa, x1 = 0.00162	0.8351 ± 0.12 mPa·s
303.15 K, 100 kPa, x1 = 0.00172	0.838 ± 0.06 mPa·s
303.15 K, 100 kPa, x1 = 0.002001	0.8439 ± 0.12 mPa·s
303.15 K, 100 kPa, x1 = 0.00234	0.8517 ± 0.12 mPa·s
303.15 K, 101 kPa, x1 = 0.0004	0.804 ± 0.007 mPa·s
303.15 K, 101 kPa, x1 = 0.0007	0.809 ± 0.007 mPa·s
303.15 K, 101 kPa, x1 = 0.001	0.817 ± 0.007 mPa·s and 0.827 ± 0.008 mPa·s
303.15 K, 101 kPa, x1 = 0.0018	0.834 ± 0.008 mPa·s
305.15 K, 101 kPa, x1 = 0.0003598	0.7908 ± 0.0051 mPa·s
305.15 K, 101 kPa, x1 = 0.0007199	0.7974 ± 0.0052 mPa·s
305.15 K, 101 kPa, x1 = 0.00108	0.8054 ± 0.0052 mPa·s
305.15 K, 101 kPa, x1 = 0.001439	0.8126 ± 0.0052 mPa·s
305.15 K, 101 kPa, x1 = 0.001798	0.8203 ± 0.0053 mPa·s
305.15 K, 101 kPa, x1 = 0.002157	0.8283 ± 0.0053 mPa·s
308.15 K, 100 kPa, x1 = 0.000274	0.729 ± 0.06 mPa·s
308.15 K, 100 kPa, x1 = 0.000292	0.7252 ± 0.12 mPa·s
308.15 K, 100 kPa, x1 = 0.000632	0.736 ± 0.06 mPa·s
308.15 K, 100 kPa, x1 = 0.000645	0.7323 ± 0.12 mPa·s
308.15 K, 100 kPa, x1 = 0.000806	0.74 ± 0.06 mPa·s
308.15 K, 100 kPa, x1 = 0.000947	0.7384 ± 0.12 mPa·s
308.15 K, 100 kPa, x1 = 0.000995	0.744 ± 0.06 mPa·s
308.15 K, 100 kPa, x1 = 0.00117	0.747 ± 0.06 mPa·s
308.15 K, 100 kPa, x1 = 0.00132	0.7458 ± 0.12 mPa·s
308.15 K, 100 kPa, x1 = 0.00153	0.755 ± 0.06 mPa·s
308.15 K, 100 kPa, x1 = 0.00162	0.752 ± 0.12 mPa·s
308.15 K, 100 kPa, x1 = 0.00172	0.758 ± 0.06 mPa·s
308.15 K, 100 kPa, x1 = 0.002001	0.7597 ± 0.12 mPa·s
308.15 K, 100 kPa, x1 = 0.00234	0.7665 ± 0.12 mPa·s
308.15 K, 101 kPa, x1 = 0.0007	0.731 ± 0.007 mPa·s
308.15 K, 101 kPa, x1 = 0.001	0.739 ± 0.007 mPa·s and 0.746 ± 0.007 mPa·s
308.15 K, 101 kPa, x1 = 0.0018	0.753 ± 0.007 mPa·s
310.15 K, 101 kPa, x1 = 0.0003598	0.709 ± 0.0047 mPa·s
310.15 K, 101 kPa, x1 = 0.0007199	0.7151 ± 0.0047 mPa·s
310.15 K, 101 kPa, x1 = 0.00108	0.7218 ± 0.0048 mPa·s
310.15 K, 101 kPa, x1 = 0.001439	0.7272 ± 0.0048 mPa·s
310.15 K, 101 kPa, x1 = 0.001798	0.7334 ± 0.0048 mPa·s
310.15 K, 101 kPa, x1 = 0.002157	0.7401 ± 0.0049 mPa·s
313.15 K, 100 kPa, x1 = 0.000274	0.663 ± 0.06 mPa·s
313.15 K, 100 kPa, x1 = 0.000292	0.6581 ± 0.12 mPa·s
313.15 K, 100 kPa, x1 = 0.000459	0.667 ± 0.06 mPa·s
313.15 K, 100 kPa, x1 = 0.000632	0.67 ± 0.06 mPa·s
313.15 K, 100 kPa, x1 = 0.000645	0.6643 ± 0.12 mPa·s
313.15 K, 100 kPa, x1 = 0.000806	0.674 ± 0.06 mPa·s
313.15 K, 100 kPa, x1 = 0.000947	0.6696 ± 0.12 mPa·s
313.15 K, 100 kPa, x1 = 0.00132	0.676 ± 0.12 mPa·s
313.15 K, 100 kPa, x1 = 0.00162	0.6814 ± 0.12 mPa·s
313.15 K, 100 kPa, x1 = 0.002001	0.688 ± 0.12 mPa·s
313.15 K, 100 kPa, x1 = 0.00234	0.694 ± 0.12 mPa·s
313.15 K, 101 kPa, x1 = 0.0004	0.658 ± 0.006 mPa·s
313.15 K, 101 kPa, x1 = 0.0007	0.663 ± 0.006 mPa·s
313.15 K, 101 kPa, x1 = 0.001	0.669 ± 0.006 mPa·s and 0.677 ± 0.006 mPa·s
313.15 K, 101 kPa, x1 = 0.0018	0.682 ± 0.006 mPa·s
315.15 K, 101 kPa, x1 = 0.0003598	0.6544 ± 0.0045 mPa·s
315.15 K, 101 kPa, x1 = 0.0007199	0.6599 ± 0.0045 mPa·s
315.15 K, 101 kPa, x1 = 0.00108	0.6653 ± 0.0045 mPa·s
315.15 K, 101 kPa, x1 = 0.001439	0.6699 ± 0.0045 mPa·s
315.15 K, 101 kPa, x1 = 0.001798	0.6752 ± 0.0046 mPa·s
315.15 K, 101 kPa, x1 = 0.002157	0.6803 ± 0.0046 mPa·s
318.15 K, 101 kPa, x1 = 0.0007	0.605 ± 0.006 mPa·s
318.15 K, 101 kPa, x1 = 0.001	0.611 ± 0.006 mPa·s and 0.618 ± 0.006 mPa·s
318.15 K, 101 kPa, x1 = 0.0018	0.622 ± 0.006 mPa·s
